Measurements from article PMC7160673, “A Degenerate Peptide Library Approach to Reveal Sequence Determinants of Methyllysine-Driven Protein Interactions” (Frontiers in Cell and Developmental Biology, 2020).

Tested on: Abcam #ab8895, anti-H3K4me1
Experiment: Histone peptide microarray, Abcam ab8895
Type: binding
Settings: Abcam ab8895 (anti-H3K4me1) hits, average signal per peptide

| Substance | Avg Signal |
| --- | --- |
| ARTK(Ac)QTARK(Me2)STGGK(Ac)APRK(Ac)QL-K(Biot)-NH2 [H3.1K4acK9me2K14acK18ac] | 0.0002166 |
| ARTKQTAR(Me2s)K(Me2)STGGKAPRKQL-K(Biot)-NH2 [H3.1R8me2sK9me2] | 0.1111 |
| ARTK(Me3)QTARK(Me2)STGGKA-Peg-Biot [H3.1K4me3K9me2] | 0.004396 |
| Ac-APRKQLATKAARK(Me2)SAPSTGG-Peg-Biot [Peptide H3.3K27me2] | 0.0005313 |
| Ac-APRKQLATKAAR(Me2a)K(Me3)SAPSTGG-Peg-Biot [H3.3R26me2aK27me3] | 0.0125 |
| ARTKQTAR(Me2s)K(Me)STGGKAPRKQL-K(Biot)-NH2 [H3.1R8me2sK9me1] | 0.3635 |
| ARTKQTAR(Me2s)K(Me3)STGGKAPRKQL-K(Biot)-NH2 [H3.1R8me2sK9me3] | 0.1225 |
| ARTKQTARK(Me3)pSTGGKAPRKQL-K(Biot)-NH2 [H3.1K9me3S10p] | 0.1409 |

Molecular target: T1, MPP8 chromo (Homo sapiens, UniProt Q99549)
T1 construct: 50-118; made in house; host or cells: E. coli BL21
T1 sequence (Q99549 50-118): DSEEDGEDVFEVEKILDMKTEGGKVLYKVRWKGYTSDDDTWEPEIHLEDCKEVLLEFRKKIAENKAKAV
Experiment: Histone peptide microarray, MPP8 chromo
Type: binding
Settings: normalized histone peptide array signal, hits; hybridization with 1 M MPP8 chromo (so in the source); two subarrays
Description: (§1) Peptide microarrays were fabricated using an Aushon 2470 microarrayer and used as described ([Cornett et al., 2017]) with the following modifications. Protein and antibody hybridization steps were performed in buffer containing 25 mM HEPES pH 7.5, 100 mM NaCl, 0.5% BSA (w/v), and 0.1% NP-40. Slides were washed 3 × 5 min in PBS supplemented with 0.1% Tween-20 between each hybridization step. Antibodies used were primary anti-GST (Sigma #7781, 1:2,000 dilution) and an AlexaFluor 647-labeled secondary antibody (Life Technologies A-21245, 1:5,000 dilution). […] Full lists of peptides queried by array analysis are in Supplementary Table S2.

| Substance | Avg Signal |
| --- | --- |
| ARTK(Me3)QTAR(Me2a)K(Me3)STGGKAPRKQL-K(Biot)-NH2 [H3.1K4me3R8me2aK9me3] | 0.8021 |
| ARTK(Ac)QTARK(Me2)STGGK(Ac)APRK(Ac)QL-K(Biot)-NH2 [H3.1K4acK9me2K14acK18ac] | 0.2405 |
| ARTK(Ac)QTARK(Me3)STGGK(Ac)APRK(Ac)QL-K(Biot)-NH2 [H3.1K4acK9me3K14acK18ac] | 0.4242 |
| ARTKQTAR(Me2s)K(Me2)STGGKAPRKQL-K(Biot)-NH2 [H3.1R8me2sK9me2] | 0.6538 |
| ARTK(Me3)QTARK(Me2)STGGKA-Peg-Biot [H3.1K4me3K9me2] | 0.4645 |
| Ac-APRKQLATKAAR(Me2a)K(Me3)SAPSTGG-Peg-Biot [H3.3R26me2aK27me3] | 0.04277 |
| ARTKQTAR(Me2s)K(Me)STGGKAPRKQL-K(Biot)-NH2 [H3.1R8me2sK9me1] | 0.1744 |
| ARTK(Ac)QTARK(Me3)STGGKAPRKQL-K(Biot)-NH2 [H3.1K4acK9me3] | 0.6556 |
| Ac-APRKQLATK(Me3)AARKSAPATGG-Peg-K(Biot)-NH2 [Peptide H3.1K23me3] | 0.09452 |
| ARTKQTAR(Me2s)K(Me3)STGGKAPRKQL-K(Biot)-NH2 [H3.1R8me2sK9me3] | 1 |
| ARTKQTARK(Me2)STGGKAPRKQL-K(Biot)-NH2 [H3.1K9me2 H3.1(1-20)] | 0.7317 |
| ARTKQTARK(Me3)pSTGGKAPRKQL-K(Biot)-NH2 [H3.1K9me3S10p] | 0.04961 |

Molecular target: T2, CDYL2 chromo (Homo sapiens, UniProt Q8N8U2)
T2 construct: 1-75; made in house; host or cells: E. coli BL21
T2 sequence (Q8N8U2 1-75): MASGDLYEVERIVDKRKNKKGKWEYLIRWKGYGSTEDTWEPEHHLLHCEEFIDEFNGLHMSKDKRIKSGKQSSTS
Experiment: Histone peptide microarray, CDYL2 chromo
Type: binding
Settings: normalized histone peptide array signal, hits; hybridization with 1 M CDYL2 chromo (so in the source); two subarrays
Description: as §1

| Substance | Avg Signal |
| --- | --- |
| Ac-APRKQLATKAARK(Me3)SAPSTGG-Peg-Biot [Peptide H3.3K27me3] | 0.1275 |
| ARTK(Me3)QTAR(Me2a)K(Me3)STGGKAPRKQL-K(Biot)-NH2 [H3.1K4me3R8me2aK9me3] | 0.3995 |
| ARTK(Ac)QTARK(Me3)STGGK(Ac)APRK(Ac)QL-K(Biot)-NH2 [H3.1K4acK9me3K14acK18ac] | 0.3091 |
| ARTKQTAR(Me2s)K(Me2)STGGKAPRKQL-K(Biot)-NH2 [H3.1R8me2sK9me2] | 0.1904 |
| ARTK(Me3)QTARK(Me2)STGGKA-Peg-Biot [H3.1K4me3K9me2] | 0.1809 |
| Ac-APRKQLATKAARK(Me2)SAPSTGG-Peg-Biot [Peptide H3.3K27me2] | 0.08888 |
| Ac-APRKQLATKAAR(Me2a)K(Me3)SAPSTGG-Peg-Biot [H3.3R26me2aK27me3] | 0.1727 |
| AGGK(Ac)AGK(Ac)DSGK(Ac)AKAKAVSR-Peg-Biot [H2A.Z.2K4acK7acK11ac] | 0.04723 |
| ARTK(Ac)QTARK(Me3)STGGKAPRKQL-K(Biot)-NH2 [H3.1K4acK9me3] | 0.363 |
| ARTKQTAR(Me2s)K(Me3)STGGKAPRKQL-K(Biot)-NH2 [H3.1R8me2sK9me3] | 0.3941 |
| ARTKQTARK(Me2)STGGKAPRKQL-K(Biot)-NH2 [H3.1K9me2 H3.1(1-20)] | 0.2996 |

Tested on: Millipore #07-449, anti-H3K27me3
Experiment: Histone peptide microarray, Millipore 07-449
Type: binding
Settings: Millipore 07-449 (anti-H3K27me3) hits, average signal per peptide

| Substance | Avg Signal |
| --- | --- |
| Ac-APRKQLATKAARK(Me3)SAPSTGG-Peg-Biot [Peptide H3.3K27me3] | 0.2205 |
| ARTK(Me3)QTAR(Me2a)K(Me3)STGGKAPRKQL-K(Biot)-NH2 [H3.1K4me3R8me2aK9me3] | 0.06329 |
| ARTK(Ac)QTARK(Me2)STGGK(Ac)APRK(Ac)QL-K(Biot)-NH2 [H3.1K4acK9me2K14acK18ac] | 0.005667 |
| ARTK(Ac)QTARK(Me3)STGGK(Ac)APRK(Ac)QL-K(Biot)-NH2 [H3.1K4acK9me3K14acK18ac] | 0.04004 |
| ARTK(Me3)QTARK(Me2)STGGKA-Peg-Biot [H3.1K4me3K9me2] | 0.04855 |
| Ac-APRKQLATKAARK(Me2)SAPSTGG-Peg-Biot [Peptide H3.3K27me2] | 0.003304 |
| Ac-APRKQLATKAAR(Me2a)K(Me3)SAPSTGG-Peg-Biot [H3.3R26me2aK27me3] | 0.2433 |
| AGGK(Ac)AGK(Ac)DSGK(Ac)AKAKAVSR-Peg-Biot [H2A.Z.2K4acK7acK11ac] | 0.003296 |
| ARTK(Ac)QTARK(Me3)STGGKAPRKQL-K(Biot)-NH2 [H3.1K4acK9me3] | 0.01932 |
| Ac-APRKQLATK(Me3)AARKSAPATGG-Peg-K(Biot)-NH2 [Peptide H3.1K23me3] | 0.005165 |
| ARTKQTAR(Me2s)K(Me3)STGGKAPRKQL-K(Biot)-NH2 [H3.1R8me2sK9me3] | 0.05357 |
| ARTKQTARK(Me3)pSTGGKAPRKQL-K(Biot)-NH2 [H3.1K9me3S10p] | 0.03312 |

Tested on: 53BP1 TTD
Experiment: Histone peptide microarray, 53BP1 TTD
Type: binding
Settings: 53BP1 TTD hits, average signal per peptide
Procedure, shortened: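 Binding of protein or antibody to arrayed histone peptides read by AlexaFluor 647 fluorescence, with anti-GST primary (1:2,000) and labelled secondary (1:5,000) for GST-fused domain. Hybridisations in HEPES pH 7.5 buffer with 100 mM NaCl, 0.5% BSA and 0.1% NP-40; triple PBS-Tween washes between steps.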

| Substance | Avg Signal |
| --- | --- |
| Ac-APRKQLATKAARK(Me3)SAPSTGG-Peg-Biot [Peptide H3.3K27me3] | 0.04567 |
| ARTK(Ac)QTARK(Me2)STGGK(Ac)APRK(Ac)QL-K(Biot)-NH2 [H3.1K4acK9me2K14acK18ac] | 0.5858 |
| ARTK(Ac)QTARK(Me3)STGGK(Ac)APRK(Ac)QL-K(Biot)-NH2 [H3.1K4acK9me3K14acK18ac] | 0.09657 |
| ARTKQTAR(Me2s)K(Me2)STGGKAPRKQL-K(Biot)-NH2 [H3.1R8me2sK9me2] | 0.3791 |
| Ac-APRKQLATKAARK(Me2)SAPSTGG-Peg-Biot [Peptide H3.3K27me2] | 0.3374 |
| Ac-APRKQLATKAAR(Me2a)K(Me3)SAPSTGG-Peg-Biot [H3.3R26me2aK27me3] | 0.1003 |
| ARTKQTAR(Me2s)K(Me)STGGKAPRKQL-K(Biot)-NH2 [H3.1R8me2sK9me1] | 0.2791 |
| ARTKQTAR(Me2s)K(Me3)STGGKAPRKQL-K(Biot)-NH2 [H3.1R8me2sK9me3] | 0.1271 |
| ARTKQTARK(Me3)pSTGGKAPRKQL-K(Biot)-NH2 [H3.1K9me3S10p] | 0.1329 |

Tested on: CST 9733 (anti-H3K27me3)
Experiment: Histone peptide microarray, CST 9733
Type: binding
Settings: histone peptide array signal normalized to the highest peptide average per subarray, hits; CST 9733 LOT:14 dilution 1:5,000

| Substance | Avg Signal |
| --- | --- |
| Ac-APRKQLATKAARK(Me3)SAPSTGG-Peg-Biot [Peptide H3.3K27me3] | 1 |
| ARTK(Me3)QTAR(Me2a)K(Me3)STGGKAPRKQL-K(Biot)-NH2 [H3.1K4me3R8me2aK9me3] | 0.01316 |
| ARTK(Ac)QTARK(Me2)STGGK(Ac)APRK(Ac)QL-K(Biot)-NH2 [H3.1K4acK9me2K14acK18ac] | 3.787e-5 |
| ARTK(Ac)QTARK(Me3)STGGK(Ac)APRK(Ac)QL-K(Biot)-NH2 [H3.1K4acK9me3K14acK18ac] | 0.01317 |
| ARTKQTAR(Me2s)K(Me2)STGGKAPRKQL-K(Biot)-NH2 [H3.1R8me2sK9me2] | 0.0002216 |
| ARTK(Me3)QTARK(Me2)STGGKA-Peg-Biot [H3.1K4me3K9me2] | 0.005297 |
| Ac-APRKQLATKAARK(Me2)SAPSTGG-Peg-Biot [Peptide H3.3K27me2] | 0.0115 |
| Ac-APRKQLATKAAR(Me2a)K(Me3)SAPSTGG-Peg-Biot [H3.3R26me2aK27me3] | 0.914 |
| ARTKQTAR(Me2s)K(Me)STGGKAPRKQL-K(Biot)-NH2 [H3.1R8me2sK9me1] | 0.01277 |
| ARTK(Ac)QTARK(Me3)STGGKAPRKQL-K(Biot)-NH2 [H3.1K4acK9me3] | 0.00836 |
| Ac-APRKQLATK(Me3)AARKSAPATGG-Peg-K(Biot)-NH2 [Peptide H3.1K23me3] | 5.2822e-5 |
| ARTKQTAR(Me2s)K(Me3)STGGKAPRKQL-K(Biot)-NH2 [H3.1R8me2sK9me3] | 0.01037 |
| ARTKQTARK(Me2)STGGKAPRKQL-K(Biot)-NH2 [H3.1K9me2 H3.1(1-20)] | 0.0005298 |

Tested on: Active Motif #39161, anti-H3K9me3
Experiment: Histone peptide microarray, Active Motif 39161
Type: binding
Settings: Active Motif 39161 (anti-H3K9me3) hits

| Substance | Avg Signal |
| --- | --- |
| Ac-APRKQLATKAARK(Me3)SAPSTGG-Peg-Biot [Peptide H3.3K27me3] | 0.01689 |
| ARTK(Me3)QTAR(Me2a)K(Me3)STGGKAPRKQL-K(Biot)-NH2 [H3.1K4me3R8me2aK9me3] | 0.5927 |
| ARTK(Ac)QTARK(Me3)STGGK(Ac)APRK(Ac)QL-K(Biot)-NH2 [H3.1K4acK9me3K14acK18ac] | 0.7316 |
| ARTK(Me3)QTARK(Me2)STGGKA-Peg-Biot [H3.1K4me3K9me2] | 0.02282 |
| Ac-APRKQLATKAAR(Me2a)K(Me3)SAPSTGG-Peg-Biot [H3.3R26me2aK27me3] | 0.0032 |
| ARTKQTAR(Me2s)K(Me)STGGKAPRKQL-K(Biot)-NH2 [H3.1R8me2sK9me1] | 0.003577 |
| AGGK(Ac)AGK(Ac)DSGK(Ac)AKAKAVSR-Peg-Biot [H2A.Z.2K4acK7acK11ac] | 0.02451 |
| ARTK(Ac)QTARK(Me3)STGGKAPRKQL-K(Biot)-NH2 [H3.1K4acK9me3] | 0.7317 |
| Ac-APRKQLATK(Me3)AARKSAPATGG-Peg-K(Biot)-NH2 [Peptide H3.1K23me3] | 0.01355 |
| ARTKQTAR(Me2s)K(Me3)STGGKAPRKQL-K(Biot)-NH2 [H3.1R8me2sK9me3] | 0.5557 |
| ARTKQTARK(Me3)pSTGGKAPRKQL-K(Biot)-NH2 [H3.1K9me3S10p] | 0.1411 |
